Measurements from patent publication US8809333B2, “Imidazole, pyrazole, and triazole derivatives useful as antibacterial agents” (Pfizer Inc., priority 2011, dated 2014).
Values after ≈ are worked out from the molar mass of the structure shown.

Key:
[1] = test system: Acinetobacter baumannii/haemolyticus: Multidrug-resistant clinical isolate (AB-3167); assay: MIC determination (CLSI), AB-3167; assay type: cell-based; conditions: Acinetobacter baumannii/haemolyticus multidrug-resistant clinical isolate, overnight incubation, lower of duplicate values; for MIC: read-out: AB-3167 (MIC)
In short: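 Broth dilution MIC per CLSI M7-A8, 2-fold concentration steps, overnight incubation, visual read of lowest concentration inhibiting growth versus drug-free control. Tested in duplicate; lower value reported if within 2-fold, otherwise repeated; QC organisms and reference drugs required within range.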

[2] = test system: Escherichia coli EC-1: VOGEL, mouse virulent; assay: MIC determination (CLSI), EC-1; assay type: cell-based; conditions: for MIC: Escherichia coli, read-out: EC-1 (MIC)
In short: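 Broth dilution MIC per CLSI M7-A8, with 2-fold compound dilutions incubated overnight with a standard inoculum. MIC is the lowest concentration visibly inhibiting growth versus drug-free control; tested in duplicate, reporting the lower value when within 2-fold, with QC organisms and reference compounds required in range.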

[3] = molecular target: T1, Pseudomonas aeruginosa LpxC enzyme (Pseudomonas aeruginosa, UniProt P47205); assay: IC50 assay, LpxC enzyme from P. aeruginosa (BioTrove RapidFire mass spectrometry); assay type: biochemical; conditions: P. aeruginosa LpxC enzyme 0.1 nM, 25° C., 1 hour, pH 8.0; read-out: PA: IC50
T1 construct: made in house; host or cells: E. coli
T1 sequence (P47205 1-303): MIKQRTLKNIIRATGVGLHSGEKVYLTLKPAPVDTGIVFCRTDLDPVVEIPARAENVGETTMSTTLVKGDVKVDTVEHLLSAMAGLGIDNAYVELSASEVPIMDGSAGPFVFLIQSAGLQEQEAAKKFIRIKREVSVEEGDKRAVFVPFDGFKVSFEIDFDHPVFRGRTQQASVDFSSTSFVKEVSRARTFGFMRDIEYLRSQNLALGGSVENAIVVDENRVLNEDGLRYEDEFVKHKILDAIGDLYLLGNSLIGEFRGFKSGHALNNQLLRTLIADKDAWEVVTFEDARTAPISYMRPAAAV
In short: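 P. aeruginosa LpxC reaction run 1 hour, stopped with 1 N HCl, and substrate-to-product conversion quantified by RapidFire mass spectrometry. IC50 calculated from percent conversion using a no-enzyme control.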

[4] = test system: Klebsiella pneumoniae: Ciprofloxacin-resistant isolate, expresses ESBL, clinical isolate (KP-3700); assay: MIC determination (CLSI), KP-3700; assay type: cell-based; conditions: overnight incubation, lower of duplicate values
In short: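 Broth dilution MIC per CLSI M7-A8 against the ciprofloxacin-resistant, ESBL-expressing clinical isolate, 2-fold concentration steps, overnight incubation, visual read of lowest growth-inhibiting concentration. Tested in duplicate; lower value reported when within 2-fold; control organisms and reference compounds required within range.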

[5] = test system: Pseudomonas aeruginosa UI-18: Wild-type (PA-7); assay: MIC determination (CLSI), PA-7; assay type: cell-based; conditions: Pseudomonas aeruginosa UI-18 wild-type, overnight incubation, lower of duplicate values; for MIC: read-out: PA-7 (MIC)
In short: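 Broth dilution MIC per CLSI M7-A8, using 2-fold compound dilutions incubated overnight; MIC is the lowest concentration with no visible growth versus the drug-free control. Run in duplicate, lower value reported when within 2-fold. Control organisms and reference compounds were included for QC.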

## CC(CCn1cc(-c2cccc(-c3ccno3)c2)cn1)(C(=O)NO)S(C)(=O)=O (stereo not drawn) [Example 74, N-hydroxy-2-methyl-2-(methylsulfonyl)-4-{4-[3-(1,2-oxazol-5-yl)phenyl]-1H-pyrazol-1-yl}butanamide]
[1]
  MIC: > 64 µg/mL
[2]
  MIC: > 64 µg/mL
[3]
  IC50: 2.45 nM
[4]
  KP-3700 (MIC): >64.0 µg/mL
[5]
  MIC: 32 µg/mL (≈ 79.1 µM)

## CC(CCn1cc(-c2ccc3c(c2)C(=O)CCC3)cn1)(C(=O)NO)S(C)(=O)=O (stereo not drawn) [Example 75, N-hydroxy-2-methyl-2-(methylsulfonyl)-4-[4-(8-oxo-5,6,7,8-tetrahydronaphthalen-2-yl)-1H-pyrazol-1-yl]butanamide]
[1]
  MIC: > 64 µg/mL
[2]
  MIC: > 64 µg/mL
[3]
  IC50: 7.17 nM
[4]
  KP-3700 (MIC): >64.0 µg/mL
[5]
  MIC: 64 µg/mL (≈ 158 µM)

## CC(CCn1cc(-c2ccc(C(F)(F)F)cn2)cn1)(C(=O)NO)S(C)(=O)=O (stereo not drawn) [Example 76, N-hydroxy-2-methyl-2-(methylsulfonyl)-4-{4-[5-(trifluoromethyl)pyridin-2-yl]-1H-pyrazol-1-yl}butanamide]
[1]
  MIC: > 64 µg/mL
[2]
  MIC: > 64 µg/mL
[3]
  IC50: 37.3 nM
[4]
  KP-3700 (MIC): >64.0 µg/mL
[5]
  MIC: 64 µg/mL (≈ 157 µM)

## CC(CCn1cc(-c2ccc(C(F)(F)F)nc2)cn1)(C(=O)NO)S(C)(=O)=O (stereo not drawn) [Example 77, N-hydroxy-2-methyl-2-(methylsulfonyl)-4-{4-[6-(trifluoromethyl)pyridin-3-yl]-1H-pyrazol-1-yl}butanamide]
[1]
  MIC: > 64 µg/mL
[2]
  MIC: > 64 µg/mL
[3]
  IC50: 19.5 nM
[4]
  KP-3700 (MIC): >64.0 µg/mL
[5]
  MIC: 64 µg/mL (≈ 157 µM)

## CCOc1ccc(-c2cnn(CCC(C)(C(=O)NO)S(C)(=O)=O)c2)cc1C#N (stereo not drawn) [Example 78, 4-[4-(3-cyano-4-ethoxyphenyl)-1H-pyrazol-1-yl]-N-hydroxy-2-methyl-2-(methylsulfonyl)butanamide]
[1]
  MIC: > 64 µg/mL
[2]
  MIC: > 64 µg/mL
[3]
  IC50: 21.7 nM
[4]
  KP-3700 (MIC): >64.0 µg/mL
[5]
  MIC: 64 µg/mL (≈ 157 µM)

## Cc1nc2ccc(-c3cnn(CCC(C)(C(=O)NO)S(C)(=O)=O)c3)cc2s1 (stereo not drawn) [Example 79, N-hydroxy-2-methyl-4-[4-(2-methyl-1,3-benzothiazol-6-yl)-1H-pyrazol-1-yl]-2-(methylsulfonyl)butanamide]
[1]
  MIC: > 64 µg/mL
[2]
  MIC: 64 µg/mL (≈ 157 µM)
[3]
  IC50: 6.22 nM
[4]
  KP-3700 (MIC): >64.0 µg/mL
[5]
  MIC: 16 µg/mL (≈ 39.2 µM)

## CC(CCn1cc(-c2ccc3nc(N)sc3c2)cn1)(C(=O)NO)S(C)(=O)=O (stereo not drawn) [Example 80, 4-[4-(2-amino-1,3-benzothiazol-6-yl)-1H-pyrazol-1-yl]-N-hydroxy-2-methyl-2-(methylsulfonyl)butanamide]
[1]
  MIC: > 64 µg/mL
[2]
  MIC: > 64 µg/mL
[3]
  IC50: 75.8 nM
[4]
  KP-3700 (MIC): >64.0 µg/mL
[5]
  MIC: > 64 µg/mL

## CC(C)COc1ccc(-c2cnn(CCC(C)(C(=O)NO)S(C)(=O)=O)c2)cn1 (stereo not drawn) [Example 81, N-hydroxy-2-methyl-4-{4-[6-(2-methylpropoxy)pyridin-3-yl]-1H-pyrazol-1-yl}-2-(methylsulfonyl)butanamide]
[1]
  MIC: > 64 µg/mL
[2]
  MIC: 8 µg/mL (≈ 19.5 µM)
[3]
  IC50: 2.07 nM
[4]
  KP-3700 (MIC): 32 µg/mL
[5]
  MIC: 32 µg/mL (≈ 78 µM)

## Cn1nccc1-c1ccc(-c2cnn(CCC(C)(C(=O)NO)S(C)(=O)=O)c2)cc1 (stereo not drawn) [Example 82, N-hydroxy-2-methyl-4-{4-[4-(1-methyl-1H-pyrazol-5-yl)phenyl]-1H-pyrazol-1-yl}-2-(methylsulfonyl)butanamide]
[1]
  MIC: > 64 µg/mL
[2]
  MIC: 8 µg/mL (≈ 19.2 µM)
[3]
  IC50: 3.29 nM
[4]
  KP-3700 (MIC): 32 µg/mL
[5]
  MIC: 16 µg/mL (≈ 38.3 µM)

## Cc1cc(-c2ccc(-c3cnn(CCC(C)(C(=O)NO)S(C)(=O)=O)c3)cc2)[nH]n1 (stereo not drawn) [Example 84, N-hydroxy-2-methyl-4-{4-[4-(3-methyl-1H-pyrazol-5-yl)phenyl]-1H-pyrazol-1-yl}-2-(methylsulfonyl)butanamide]
[1]
  MIC: > 64 µg/mL
[2]
  MIC: 16 µg/mL (≈ 38.3 µM)
[3]
  IC50: 6.44 nM
[4]
  KP-3700 (MIC): >64.0 µg/mL
[5]
  MIC: 64 µg/mL (≈ 153 µM)

## CC(CCn1cc(-c2cccc(-c3cc(N)[nH]n3)c2)cn1)(C(=O)NO)S(C)(=O)=O (stereo not drawn) [Example 85, 4-{4-[3-(5-amino-1H-pyrazol-3-yl)phenyl]-1H-pyrazol-1-yl}-N-hydroxy-2-methyl-2-(methylsulfonyl)butanamide]
[1]
  MIC: > 64 µg/mL
[2]
  MIC: > 64 µg/mL
[3]
  IC50: 58.9 nM
[4]
  KP-3700 (MIC): >64.0 µg/mL
[5]
  MIC: > 64 µg/mL

## CC(CCn1cc(-c2ccc3cc(C(N)=O)[nH]c3c2)cn1)(C(=O)NO)S(C)(=O)=O (stereo not drawn) [Example 86, 6-{1-[4-(hydroxyamino)-3-methyl-3-(methylsulfonyl)-4-oxobutyl]-1H-pyrazol-4-yl}-1H-indole-2-carboxamide]
[1]
  MIC: > 64 µg/mL
[2]
  MIC: > 64 µg/mL
[3]
  IC50: 14.5 nM
[4]
  KP-3700 (MIC): >64.0 µg/mL
[5]
  MIC: > 64 µg/mL

## CC(CCn1cc(-c2ccc3[nH]c(C(N)=O)cc3c2)cn1)(C(=O)NO)S(C)(=O)=O (stereo not drawn) [Example 87, 5-{1-[4-(hydroxyamino)-3-methyl-3-(methylsulfonyl)-4-oxobutyl]-1H-pyrazol-4-yl}-1H-indole-2-carboxamide]
[1]
  MIC: > 64 µg/mL
[2]
  MIC: > 64 µg/mL
[3]
  IC50: 63.6 nM
[4]
  KP-3700 (MIC): >64.0 µg/mL
[5]
  MIC: > 64 µg/mL

## CC(CCn1cc(-c2cccc(OC(F)(F)F)c2)cn1)(C(=O)NO)S(C)(=O)=O (stereo not drawn) [Example 88, N-hydroxy-2-methyl-2-(methylsulfonyl)-4-{4-[3-(trifluoromethoxy)phenyl]-1H-pyrazol-1-yl}butanamide]
[1]
  MIC: 64 µg/mL (≈ 152 µM)
[2]
  MIC: 32 µg/mL (≈ 75.9 µM)
[3]
  IC50: 0.652 nM
[4]
  KP-3700 (MIC): >64.0 µg/mL
[5]
  MIC: 8 µg/mL (≈ 19 µM)

## CC(CCn1cc(-c2ccc(-c3csnn3)cc2)cn1)(C(=O)NO)S(C)(=O)=O (stereo not drawn) [Example 90, N-hydroxy-2-methyl-2-(methylsulfonyl)-4-{4-[4-(1,2,3-thiadiazol-4-yl)phenyl]-1H-pyrazol-1-yl}butanamide]
[1]
  MIC: > 64 µg/mL
[2]
  MIC: 16 µg/mL (≈ 38 µM)
[3]
  IC50: 1.23 nM
[4]
  KP-3700 (MIC): 64 µg/mL
[5]
  MIC: 4 µg/mL (≈ 9.49 µM)

## CCc1nc2ccc(-c3cnn(CCC(C)(C(=O)NO)S(C)(=O)=O)c3)cc2s1 (stereo not drawn) [Example 91, 4-[4-(2-ethyl-1,3-benzothiazol-6-yl)-1H-pyrazol-1-yl]-N-hydroxy-2-methyl-2-(methylsulfonyl)butanamide]
[1]
  MIC: > 64 µg/mL
[2]
  MIC: 32 µg/mL (≈ 75.7 µM)
[3]
  IC50: 2.55 nM
[4]
  KP-3700 (MIC): >64.0 µg/mL
[5]
  MIC: 16 µg/mL (≈ 37.9 µM)

## Cc1nccc(-c2ccc(-c3cnn(CCC(C)(C(=O)NO)S(C)(=O)=O)c3)cc2)n1 (stereo not drawn) [Example 92, N-hydroxy-2-methyl-4-{4-[4-(2-methylpyrimidin-4-yl)phenyl]-1H-pyrazol-1-yl}-2-(methylsulfonyl)butanamide]
[1]
  MIC: > 64 µg/mL
[2]
  MIC: 32 µg/mL (≈ 74.5 µM)
[3]
  IC50: 5.49 nM
[4]
  KP-3700 (MIC): >64.0 µg/mL
[5]
  MIC: 32 µg/mL (≈ 74.5 µM)

## (2R)-4-[4-(2-fluoro-4-methoxyphenyl)-1H-1,2,3-triazol-1-yl]-N-hydroxy-2-methyl-2-(methylsulfonyl)butanamide [Example 22]
[1]
  AB-3167 (MIC): >64.0 µg/mL
[2]; Escherichia coli EC-1 VOGEL, mouse virulent, overnight incubation, lower of duplicate values
  EC-1 (MIC): 4 µg/mL
[3]
  IC50: 1.2 nM
[4]
  KP-3700 (MIC): 32 µg/mL
[5]
  PA-7 (MIC): 2 µg/mL
